Experimental data: patent US4241052A, “Novel nitrosourea compounds and process for preparing the same” (Tanabe Seiyaku Co., Ltd., priority 1978, dated 1980)

Key:
Leukemia L-1210 = assay: Effect on life span of mice implanted with leukemic cells of L-1210 (Method B); format: in vivo, mice (BDF1, male); details: for increase in the average life span: five consecutive days; for 60-day survivors (mice survived/mice used) / ILS: 5 days
Experimental: (B) Effect on the life span of mice implanted with leukemic cells of L-1210
10^5 leukemic cells of L-1210 were inoculated intraperitoneally into a group of four male mice (BDF1 mice, body weight: 19-23 g). A test compound was dissolved in a physiological saline solution and administered intraperitoneally to the mice. The administration of the test compound was began 24 hours after the inoculation of the leukemic cells and performed once a day for 5 days. The survival days of the treated mice were observed.

[1] = Preventive effect against the growth of Ehrlich ascites carcinoma (Method A); format: in vivo, mice (ICR, female); details: mouse, in vivo, ip; max dose, 100% inhibition without death; doses of the table in mg/kg/day; read-out: MTD (Maximum Tolerated Dose)
Experimental: (§1) (A) Preventive effect against the growth of Ehrlich ascites tumor
(§2) 10^6 tumor cells of Ehrlich ascites carcinoma were inoculated intraperitoneally into a group of five femal mice (ICR mice, body weight: 19-23 g). A test compound was dissolved in a physiological saline solution and administered intraperitoneally to the mice. The administration of the test compound was began 24 hours after the inoculation of the tumor cells and performed once a day for 5 days. The volume of ascites in the treated mice were measured after 7 days of the experiment.

[2] = system: Ehrlich ascites carcinoma; assay: as above; format: in vivo, mice (ICR, female); details: for inhibition in vivo at 0.19 mg/kg: 0.19 mg/kg/day i.p.; for inhibition in vivo at 0.39 mg/kg: 0.39 mg/kg/day i.p.; for inhibition in vivo at 0.78 mg/kg: 0.78 mg/kg/day i.p.; for inhibition in vivo at 1.56 mg/kg: 1.56 mg/kg/day i.p.; for inhibition in vivo at 25 mg/kg: 25 mg/kg/day i.p.; for minimal effective dose: 168 h, min dose, 100% inhibition, read-out: MED (Minimum Effective Dose); for therapeutic index (M.T.D./M.E.D.), times greater than that of GANU: Ehrlich ascites tumor, relative to GANU
Experimental: as §1, §2

[3] = Mus musculus, Ehrlich, ip, 120 h, 5 days, read-out: Inhibition ratio
[4] = Mus musculus, Ehrlich, ip, 120 h, 6.25 mg/kg/day i.p., 5 days, read-out: Inhibition ratio
[5] = Mus musculus, Ehrlich, ip, 120 h, 100 mg/kg/day i.p., 5 days, read-out: Inhibition ratio
[6] = Mus musculus, Ehrlich, ip, doses of the table in mg/kg/day
[7] = Mus musculus, Ehrlich, ip, 120 h, 3.12 mg/kg/day i.p., 5 days, read-out: Inhibition ratio
[8] = Mus musculus, Ehrlich, ip, 120 h, 400 mg/kg/day i.p., 5 days, read-out: Inhibition ratio
[9] = Mus musculus, Ehrlich, ip, 120 h, 12.5 mg/kg/day i.p., 5 days, read-out: Inhibition ratio
[10] = Mus musculus, Ehrlich, ip, 120 h, 50 mg/kg/day i.p., 5 days, read-out: Inhibition ratio

Row | Compound | MTD at 168 h [1] [mg/kg/day] | Therapeutic index (MTD/MED) [2] | inhibition in vivo at 0.39 mg/kg [2, 3] [%] | inhibition in vivo at 0.78 mg/kg [2, 3] [%] | inhibition in vivo at 1.56 mg/kg [2, 3] [%] | inhibition in vivo at 6.25 mg/kg [2, 4] [%] | inhibition in vivo at 25 mg/kg [2, 3] [%] | inhibition in vivo at 100 mg/kg [2, 5] [%] | minimal effective dose [2, 6] [mg/kg/day] | further results
1 | O=NN(CCCl)C(=O)N(Cc1cccs1)C1OC[C@H](O)[C@H](O)[C@H]1O (stereo partly drawn) [1-(2-chloroethyl)-1-nitroso-3-(thiophen-2-yl-methyl)-3-(L-arabinopyranosyl)urea] | – | – | – | – | – | – | – | – | – | increase in the average life span (Leukemia L-1210; 0.35 mg/kg i.p.): about 30%
2 | O=NN(CCCl)C(=O)N(Cc1cccs1)C1OC[C@H](O)[C@H](O)[C@H]1O (stereo partly drawn) [Compound 13, 1-(2-chloroethyl)-1-nitroso-3-(thiophen-2-yl-methyl)-3-(L-arabinopyranosyl)urea] | 100 | 128 | 54 | 100 | 100 | 100 | 100 | 100 | 0.78 | Toxic (number of mice died/number of mice used) ([2]; 200 mg/kg/day i.p., 5 days): 5/5; inhibition in vivo at 0.19 mg/kg [2, 3]: 18%; 60-day survivors (mice survived/mice used) (Leukemia L-1210; 12.5 mg/kg/day i.p.): 0/4; ILS (Leukemia L-1210; 12.5 mg/kg/day i.p.): 121.4%; 60-day survivors (mice survived/mice used) (Leukemia L-1210; 25 mg/kg/day i.p.): 2/4; ILS (Leukemia L-1210; 25 mg/kg/day i.p.): > 442.9%; 60-day survivors (mice survived/mice used) (Leukemia L-1210; 50 mg/kg/day i.p.): 2/4; ILS (Leukemia L-1210; 50 mg/kg/day i.p.): > 414.3%
3 | CC(c1ccccc1)N(C(=O)N(CCCl)N=O)C1O[C@H](CO)[C@@H](O[C@H]2O[C@H](CO)[C@@H](O)[C@H](O)[C@H]2O)[C@H](O)[C@H]1O (stereo partly drawn) [Compound 5, 1-(2-chloroethyl)-1-nitroso-3-(α-methylbenzyl)-3-[O-α-D-glucopyranosyl-(1→4)-D-glucopyranosyl]urea] | 400 | 128 | – | – | 6.2 | 100 | 100 | 100 | 3.12 | Toxic (number of mice died/number of mice used) ([2]; 800 mg/kg/day i.p., 5 days): 4/5; inhibition in vivo at 3.12 mg/kg [2, 7]: 100%; inhibition in vivo at 400 mg/kg [2, 8]: 100%
4 | O=NN(CCCl)C(=O)N(CC1CO1)C1OC[C@H](O)[C@H](O)[C@H]1O (stereo partly drawn) [1-(2-chloroethyl)-1-nitroso-3-(oxiran-2-yl-methyl)-3-(L-arabinopyranosyl)urea] | – | – | – | – | – | – | – | – | – | increase in the average life span (Leukemia L-1210; 1.05 mg/kg i.p.): about 30%
5 | O=NN(CCCl)C(=O)N(CCc1ccccc1)C1O[C@H](CO)[C@@H](O[C@H]2O[C@H](CO)[C@@H](O)[C@H](O)[C@H]2O)[C@H](O)[C@H]1O (stereo partly drawn) [Compound 4, 1-(2-chloroethyl)-1-nitroso-3-phenethyl-3-[O-α-D-glucopyranosyl-(1→4)-D-glucopyranosyl]urea] | 200 | 64 | – | 2.6 | 66.7 | – | – | – | 3.12 | Toxic (number of mice died/number of mice used) ([2]; 400 mg/kg/day i.p., 5 days): 5/5; inhibition in vivo at 3.12 mg/kg [2, 7]: 100%; inhibition in vivo at 12.5 mg/kg [2, 9]: 100%; inhibition in vivo at 50 mg/kg [2, 10]: 100%; inhibition in vivo at 200 mg/kg ([2]; Mus musculus, Ehrlich, ip, 120 h, 200 mg/kg/day i.p., 5 days, read-out: Inhibition ratio): 100%
6 | O=NN(CCCl)C(=O)N(Cc1cccs1)C1O[C@H](CO)[C@@H](O[C@H]2O[C@H](CO)[C@@H](O)[C@H](O)[C@H]2O)[C@H](O)[C@H]1O (some centres unmarked) | – | – | – | – | – | – | – | – | – | therapeutic index (M.T.D./M.E.D.), times greater than that of GANU [2]: about 8 times
7 | O=NN(CCCl)C(=O)N(CC1CC1)C1OC[C@H](O)[C@H](O)[C@H]1O (stereo partly drawn) [1-(2-chloroethyl)-1-nitroso-3-cyclopropylmethyl-3-(L-arabinopyranosyl)urea] | – | – | – | – | – | – | – | – | – | increase in the average life span (Leukemia L-1210; 1.1 mg/kg i.p.): about 30%
8 | O=NN(CCCl)C(=O)N(Cc1cccs1)C1O[C@H](CO)[C@@H](O[C@H]2O[C@H](CO)[C@@H](O)[C@H](O)[C@H]2O)[C@H](O)[C@H]1O (stereo partly drawn) [Compound 7, 1-(2-chloroethyl)-1-nitroso-3-(thiophen-2-yl-methyl)-3-[O-α-D-glucopyranosyl-(1→4)-D-glucopyranosyl]urea] | 400 | 256 | 6.2 | 31.2 | 100 | 100 | 100 | 100 | 1.56 | Toxic (number of mice died/number of mice used) ([2]; 800 mg/kg/day i.p., 5 days): 5/5; inhibition in vivo at 400 mg/kg [2, 8]: 100%
9 | O=NN(CCCl)C(=O)N(CC1CO1)C1OC[C@H](O)[C@H](O)[C@H]1O (stereo partly drawn) [Compound 12, 1-(2-chloroethyl)-1-nitroso-3-(oxiran-2-yl-methyl)-3-(L-arabinopyranosyl)urea] | 50 | 128 | 100 | 100 | – | – | – | – | 0.39 | Toxic (number of mice died/number of mice used) ([2]; 100 mg/kg/day i.p., 5 days): 5/5; inhibition in vivo at 0.19 mg/kg [2, 3]: 20.9%; inhibition in vivo at 3.12 mg/kg [2, 7]: 100%; inhibition in vivo at 12.5 mg/kg [2, 9]: 100%; inhibition in vivo at 50 mg/kg [2, 10]: 100%
10 | COc1ccc(CN(C(=O)N(CCCl)N=O)C2O[C@H](CO)[C@@H](O[C@H]3O[C@H](CO)[C@@H](O)[C@H](O)[C@H]3O)[C@H](O)[C@H]2O)cc1 (some centres unmarked) | – | – | – | – | – | – | – | – | – | therapeutic index (M.T.D./M.E.D.), times greater than that of GANU [2]: about 8 times
11 | O=NN(CCCl)C(=O)N(Cc1ccccc1)C1OC[C@H](O)[C@H](O)[C@H]1O (stereo partly drawn) [Compound 11, 1-(2-chloroethyl)-1-nitroso-3-benzyl-3-(L-arabinopyranosyl)urea] | 100 | 128 | 65.3 | 100 | 100 | 100 | 100 | 100 | 0.78 | Toxic (number of mice died/number of mice used) ([2]; 200 mg/kg/day i.p., 5 days): 5/5; inhibition in vivo at 0.19 mg/kg [2, 3]: 18.4%
12 | O=NN(CCCl)C(=O)N(CC1CCCO1)C1O[C@H](CO)[C@H](O)[C@H](O)[C@H]1O (stereo partly drawn) [1-(2-chloroethyl)-1-nitroso-3-tetrahydrofurfuryl-3-(D-galactopyranosyl)urea] | – | – | – | – | – | – | – | – | – | increase in the average life span (Leukemia L-1210; 1.7 mg/kg i.p.): about 30%
13 | O=NN(CCCl)C(=O)N(Cc1ccccc1)C1O[C@H](CO)[C@@H](O[C@H]2O[C@H](CO)[C@@H](O)[C@H](O)[C@H]2O)[C@H](O)[C@H]1O (some centres unmarked) | – | – | – | – | – | – | – | – | – | therapeutic index (M.T.D./M.E.D.), times greater than that of GANU [2]: about 8 times
14 | O=NN(CCCl)C(=O)NC1CCCCC1 [CCNU, 1-(2-chloroethyl)-1-nitroso-3-cyclohexylurea, reference compound] | – | 4 | – | – | – | – | – | – | – | Inhibition ratio ([2]; 3.12 mg/kg/day i.p., 5 days): 21.1%; Inhibition ratio ([2]; 6.25 mg/kg/day i.p., 5 days): 33.3%; Inhibition ratio ([2]; 12.5 mg/kg/day i.p., 5 days): 100%; Inhibition ratio ([2]; 50 mg/kg/day i.p., 5 days): 100%; Toxic (number of mice died/number of mice used) ([2]; 100 mg/kg/day i.p., 5 days): 5/5; MTD (Maximum Tolerated Dose) ([2]; max dose, 100% inhibition without death, doses of the table in mg/kg/day, 10080 min): 50
15 | O=NN(CCCl)C(=O)N(Cc1ccco1)C1O[C@H](CO)[C@@H](O)[C@H]1O (stereo partly drawn) [Compound 14, 1-(2-chloroethyl)-1-nitroso-3-furfuryl-3-(D-ribofuranosyl)urea] | 100 | 64 | 18.4 | 30.6 | 100 | 100 | 100 | 100 | 1.56 | Toxic (number of mice died/number of mice used) ([2]; 200 mg/kg/day i.p., 5 days): 5/5
16 | Cc1ccc(CN(C(=O)N(CCCl)N=O)C2O[C@H](CO)[C@@H](O[C@H]3O[C@H](CO)[C@@H](O)[C@H](O)[C@H]3O)[C@H](O)[C@H]2O)cc1 (stereo partly drawn) [Compound 2, 1-(2-chloroethyl)-1-nitroso-3-(p-methylbenzyl)-3-[O-α-D-glucopyranosyl-(1→4)-D-glucopyranosyl]urea] | 400 | 256 | 12.8 | 74.4 | 100 | 100 | 100 | 100 | 1.56 | Toxic (number of mice died/number of mice used) ([2]; 800 mg/kg/day i.p., 5 days): 5/5; inhibition in vivo at 400 mg/kg [2, 8]: 100%
